Activity calls are given as the source filed them. No cut-off for these calls is given here.
Tests used:
[1] = molecular target: T1, Stimulator of interferon genes protein (Homo sapiens, UniProt Q86WV6); assay: Agonist activity at STING in human THP1-Blue ISG cells assessed as fold change in ISG activation at 10 uM incubated for 24 hrs by Quanti-Luc or Quanti-blue reagent based luminescence assay; type: cell-based; conditions: filed as agonist
Target sequence in this assay (Q86WV6 whole entry): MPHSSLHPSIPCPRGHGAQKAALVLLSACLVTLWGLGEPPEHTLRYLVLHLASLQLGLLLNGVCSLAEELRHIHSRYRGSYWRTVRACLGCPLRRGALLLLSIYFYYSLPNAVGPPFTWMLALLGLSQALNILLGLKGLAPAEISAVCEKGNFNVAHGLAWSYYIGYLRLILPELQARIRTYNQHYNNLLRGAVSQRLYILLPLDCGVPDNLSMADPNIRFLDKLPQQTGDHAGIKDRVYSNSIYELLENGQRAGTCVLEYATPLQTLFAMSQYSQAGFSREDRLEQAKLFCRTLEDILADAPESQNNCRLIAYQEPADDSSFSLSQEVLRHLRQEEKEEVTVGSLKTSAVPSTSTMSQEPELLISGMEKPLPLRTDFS

[2] = molecular target: T2, Stimulator of interferon genes protein (Mus musculus) (UniProt Q3TBT3); assay: Agonist activity at STING in mouse RAW-Lucia ISG cells assessed as fold change in ISG activation at 50 uM incubated for 24 hrs by Quanti-Luc or Quanti-blue reagent based luminescence assay; type: cell-based
T2 sequence (whole entry): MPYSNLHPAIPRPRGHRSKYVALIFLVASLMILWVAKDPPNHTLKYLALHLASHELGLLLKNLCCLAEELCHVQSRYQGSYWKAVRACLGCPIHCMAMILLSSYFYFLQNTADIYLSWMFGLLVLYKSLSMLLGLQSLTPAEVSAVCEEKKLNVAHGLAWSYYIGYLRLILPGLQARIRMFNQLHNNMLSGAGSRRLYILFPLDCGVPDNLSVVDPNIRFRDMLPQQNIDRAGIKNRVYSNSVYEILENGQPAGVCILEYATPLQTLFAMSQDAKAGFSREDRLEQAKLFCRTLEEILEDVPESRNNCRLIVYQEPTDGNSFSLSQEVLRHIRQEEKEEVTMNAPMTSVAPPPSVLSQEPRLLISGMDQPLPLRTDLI

[3] = molecular target: T1, Stimulator of interferon genes protein; assay: Agonist activity at STING in human THP1-Dual cells assessed as ISG pathway activation incubated for 24 hrs by Quanti-Luc or Quanti-blue reagent based luminescence assay; type: cell-based
Target sequence in this assay (Q86WV6 whole entry): as the sequence (Q86WV6 whole entry) above

B16-F10 [4] = assay: Antitumor activity against mouse B16-F10 cells implanted in immunocompetent C57BL/6 mouse assessed as inhibition of tumor growth at 500 ug, IT administered on day 1,4 and 7 and measured twice per week for 8 days; type: functional, cell-based; conditions: dose 500.0 µg, time 8.0 day
[5] = molecular target: T1, Stimulator of interferon genes protein; assay: Agonist activity at STING in human THP1-Dual cells assessed as increase in TBK1 phosphorylation at 3.3 to 30 uM incubated for 2 to 4 hrs by Western blot analysis; type: cell-based; conditions: filed as agonist, dose 3.3-30 µM, time 2-4 hrs
Target sequence in this assay (Q86WV6 whole entry): as the sequence (Q86WV6 whole entry) above

[6] = molecular target: T1, Stimulator of interferon genes protein; assay: Agonist activity at STING in human THP1-Dual cells assessed as increase in IRF3 phosphorylation at 3.3 to 30 uM incubated for 2 to 4 hrs by Western blot analysis; type: cell-based; conditions: filed as agonist, dose 3.3-30 µM, time 2-4 hrs
Target sequence in this assay (Q86WV6 whole entry): as the sequence (Q86WV6 whole entry) above

[7] = molecular target: T1, Stimulator of interferon genes protein; assay: Agonist activity at STING in human THP1-Dual cells assessed as increase in IFN-beta mRNA expression at 3.3 to 30 uM incubated for 6 hrs by RT-PCR analysis; type: cell-based; conditions: filed as agonist, dose 3.3-30 µM
Target sequence in this assay (Q86WV6 whole entry): as the sequence (Q86WV6 whole entry) above

[8] = molecular target: T1, Stimulator of interferon genes protein; assay: Agonist activity at STING in human THP1-Dual cells assessed as increase in IP-10 mRNA expression at 3.3 to 30 uM incubated for 6 hrs by RT-PCR analysis; type: cell-based; conditions: filed as agonist, dose 3.3-30 µM
Target sequence in this assay (Q86WV6 whole entry): as the sequence (Q86WV6 whole entry) above

[9] = molecular target: T2, Stimulator of interferon genes protein (Mus musculus); assay: Agonist activity at STING in mouse RAW-Lucia ISG cells assessed as activation of ISG pathway incubated for 24 hrs by Quanti-Luc or Quanti-blue reagent based luminescence assay; type: cell-based; conditions: filed as agonist, dose 3.12-50 µM, DDE = dose-dependent effect
Homo sapiens = organism: Homo sapiens; assay: Binding affinity to human STING 293Q variant assessed as thermal stability by measuring rightward shift in fluorescence curve at 50 uM by SYPRO orange dye based differential scanning fluorimetry assay; conditions: filed as agonist
Mus musculus = organism: Mus musculus; assay: Binding affinity to mouse STING R231 variant assessed as thermal stability by measuring rightward shift in fluorescence curve at 50 uM by SYPRO orange dye based differential scanning fluorimetry assay; conditions: filed as agonist
[10] = system: Stimulator of interferon genes protein (Homo sapiens), Q86WV6 [UNDEFINED MUTATION]; assay: Agonist activity at STING R232 variant in human 293-Dual hSTING-R232 cells assessed as activation of ISG pathway at 3.3 to 30 uM incubated for 48 hrs by Quanti-Luc or Quanti-blue reagent based luminescence assay; type: cell-based; conditions: filed as agonist, dose 3.3-30 µM
[11] = system: Stimulator of interferon genes protein (Homo sapiens), Q86WV6 [UNDEFINED MUTATION]; assay: Agonist activity at STING H232 variant in human 293-Dual hSTING-H232 cells assessed as activation of ISG pathway at 3.3 to 30 uM incubated for 48 hrs by Quanti-Luc or Quanti-blue reagent based luminescence assay; type: cell-based; conditions: filed as agonist, dose 3.3-30 µM
[12] = Toxicity in C57BL/6 mouse implanted with mouse B16-F10 cells assessed as reduction in body weight at 500 ug, IT administered on day 1,4 and 7 and measured twice per week for 8 days; type: cell-based; conditions: in vivo, other, 192 h, dose 500 µg, time 8 day
[13] = Toxicity in STING-knockout C57BL/6 mouse implanted with mouse B16-F10 cells assessed as reduction in body weight at 500 ug, IT administered on day 1,4 and 7 and measured twice per week for 8 days; type: cell-based; conditions: in vivo, other, 192 h, dose 500 µg, time 8 day
CT26 [14] = assay: Antitumor activity against mouse CT26 cells implanted in immunocompetent Balb/c mouse assessed as suppression of tumor growth at 500 ug, IT administered on day 1,4 and 7 and measured twice per week; type: functional, cell-based; conditions: dose 500.0 µg, time 7.0 day
[15] = Toxicity in Balb/c mouse implanted with mouse CT26 cells assessed as reduction in body weight at 500 ug, IT administered on day 1,4 and 7 and measured twice per week; type: cell-based; conditions: in vivo, other, 168 h, dose 500 µg, time 7 day
CT26 [16] = assay: Immunological memory derived antitumor activity against mouse CT26 cells implanted in immunocompetent Balb/c mouse assessed as suppression of tumor growth at 500 ug, IT administered on day 1,4 and 7 followed by reinoculation of cells into tumor-free animal after 2 months and measured for 22 days post inoculation; type: functional, cell-based; conditions: dose 500.0 µg, time 22.0 day
B16-F10 [17] = assay: Antitumor activity against mouse B16-F10 cells implanted in immunocompetent C57BL/6 mouse assessed as inhibition of tumor growth at 100 mg/kg, po administered via gavage on day 1,4 and 7 and measured twice per week; type: functional, organism-based; conditions: time 7.0 day
[18] = Toxicity in C57BL/6 mouse implanted with mouse B16-F10 cells assessed as reduction in body weight at 100 mg/kg, po administered via gavage on day 1,4 and 7 and measured twice per week; type: organism-based; conditions: in vivo, 168 h, time 7 day
4T1 = assay: Antitumor activity against mouse 4T1 cells implanted in Balb/c mouse assessed as inhibition of tumor growth at 100 mg/kg, po administered via gavage on day 1,4 and 7 and measured twice per week; type: functional, organism-based; conditions: time 7.0 day
[19] = Toxicity against Balb/c mouse implanted with mouse 4T1 cells assessed as reduction in body weight at 100 mg/kg, po administered via gavage on day 1,4 and 7 and measured twice per week for 22 days; type: organism-based; conditions: in vivo, 528 h, time 22 day
[20] = molecular target: T1, Stimulator of interferon genes protein; assay: Displacement of cGAMP from human full length STING HAQ variant expressed in insect microsomes incubated for 16 hrs by TopCount scintillation counting method; set-up: species or system Microsome
Target sequence in this assay (Q86WV6 whole entry, looked up, change not shown): as the sequence (Q86WV6 whole entry) above

[21] = molecular target: T1, Stimulator of interferon genes protein; assay: Agonist activity at STING in human THP-1 cells assessed as increase in IFN-beta secretion incubated for 5 hrs by AlphaLISA assay; type: cell-based
[22] = molecular target: T1, Stimulator of interferon genes protein; assay: Binding affinity to STING HAQ variant (unknown origin)
Target sequence in this assay (Q86WV6 whole entry, looked up, change not shown): as the sequence (Q86WV6 whole entry) above

CT26 [23] = assay: Antitumor activity against mouse CT26 cells implanted in immunocompetent Balb/c mouse assessed as suppression of tumor growth at 250 ug, IT administered on day 1,4 and 7 and measured twice per week; type: functional, cell-based; conditions: dose 250.0 µg, time 7.0 day
[24] = Toxicity in C57BL/6 mouse implanted with mouse B16-F10 cells assessed as reduction in body weight at 50 ug, IT administered on day 1,4 and 7 and measured twice per week for 8 days; type: cell-based; conditions: in vivo, other, 192 h, dose 50 µg, time 8 day
[25] = Toxicity in STING-knockout C57BL/6 mouse implanted with mouse B16-F10 cells assessed as reduction in body weight at 50 ug, IT administered on day 1,4 and 7 and measured twice per week for 8 days; type: cell-based; conditions: in vivo, other, 192 h, dose 50 µg, time 8 day

Chain of Stimulator of interferon genes protein (Homo sapiens), Q86WV6 [UNDEFINED MUTATION] (Q86WV6 whole entry, looked up, change not shown): as the sequence (Q86WV6 whole entry) above

Row | Compound | fold change (FC) [1] | fold change (FC) ([2]; filed as agonist) | further results
1 | COc1cc2cc(C(=O)CCC(=O)ONC3CCCCC3)sc2cc1OC | 25 | 1.1 | –
2 | COc1cc2cc(C(=O)CCC(=O)ONCc3ccccc3)sc2cc1OC | 22.4 | 25.3 | EC50 [3]: 6.14 µM
3 | COc1cc2cc(CCCC(=O)O)sc2cc1OC | 1 | – | fold change (FC) [2]: < 1
4 | COc1cc2nc(C(=O)CCC(=O)O)[nH]c2cc1OC | 0.9 | 1.1 | –
5 | COc1cc2cc(C(=O)NCC(=O)O)sc2cc1OC | 1.2 | – | –
6 | COc1cc2sc(C(=O)CC(C)(C)C(=O)O)cc2c(F)c1OCCCOc1c(OC)cc2sc(C(=O)CC(C)(C)C(=O)O)cc2c1F | – | – | IC50 [20]: 0.002 µM; EC50 [21]: 0.008 µM
7 | COc1cc2cc(C(=O)CCC(=O)O)oc2cc1OC | 0.9 | 1 | –
8 | COc1cc2cc(C(O)CCC(=O)O)sc2cc1OC (centres undefined) | 0.9 | – | fold change (FC) [2]: < 1
9 | COc1cc2cc(NC(=O)CC(=O)O)sc2cc1OC | 1 | 1.1 | –
10 | COc1cc2cc(C3=NOC(C(=O)O)C3)sc2cc1OC (centres undefined) | 3.8 | 0.9 | –
11 | COc1cc2cc(C(=O)NCCC(=O)O)sc2cc1OC | 1.2 | – | –
12 | COc1cc2cc(C(CCC(=O)O)OC)sc2cc1OC (centres undefined) | 1 | 0.5 | –
13 | COc1cc2cc(C(=O)SCC(=O)O)sc2cc1OC | 1 | 1 | –
14 | COc1cc2cc(-c3cc(C(=O)O)[nH]n3)sc2cc1OC | 1 | 1 | –
15 | Cc1ccc2c(=O)c3cccc(CC(=O)O)c3oc2c1C | – | – | Activity (CT26 [23]): Active
16 | COc1cc2cc(C(=O)CCC(=O)NOCc3ccccc3)sc2cc1OC | 16.5 | 0.8 | –
17 | COc1cc2c(cc1OC)S(=O)(=O)C(C(=O)CCC(=O)O)=C2 | 1.1 | 0.7 | –
18 | Nc1ncnc2c1ncn2[C@@H]1O[C@@H]2CO[P@@](=O)(S)O[C@@H]3[C@H](O)[C@@H](CO[P@@](=O)(S)O[C@H]2[C@H]1O)O[C@H]3n1cnc2c(N)ncnc21 | – | – | Activity [24]: Non-Toxic; Activity [25]: Non-Toxic

Continued, in another order:

Row | fold change (FC) [1] | fold change (FC) ([2]; filed as agonist) | Compound | further results
19 | 25.4 | 19.3 | COc1cc2cc(C(=O)CCC(=O)ONC(C)C)sc2cc1OC | inhibition (B16-F10 [4]): Active; EC50 [3]: 2.55 µM; Activity [5]: Active; Activity [6]: Active; Activity [7]: Active; Activity [8]: Active; Activity [9]: Dde; Activity (Homo sapiens): Active; Activity (Mus musculus): Active; Activity [10]: Active; Activity [11]: Active; Activity [12]: Non-Toxic; Activity [13]: Non-Toxic; Activity (CT26 [14]): Active; Activity [15]: Non-Toxic; Activity (CT26 [16]): Active; inhibition (B16-F10 [17]): Active; Activity [18]: Non-Toxic; inhibition (4T1): Active; Activity [19]: Non-Toxic
20 | 23.5 | 13.6 | COc1cc2cc(C(=O)CCC(=O)O)sc2cc1OC | EC50 [3]: 8.14 µM; EC50 [22]: 1.72 µM
21 | 1 | 1.2 | COc1cc2cc(C(=O)CCC(=O)N(O)C(C)C)sc2cc1OC | –
22 | 2.3 | 1.1 | COc1cc2cc(C(=O)CCC(=O)N(O)Cc3ccccc3)sc2cc1OC | –
23 | 3.2 | 0.5 | COc1cc2cc(C(=O)CCC(=O)N(C)OC)sc2cc1OC | –
24 | 24.2 | 2.7 | CONC(=O)CCC(=O)c1cc2cc(OC)c(OC)cc2s1 | –
25 | 1.1 | 0.8 | COc1cc2cc(C(=O)CCCC(=O)O)sc2cc1OC | –
26 | 15 | 0.7 | COc1cc2cc(C(=O)CCC(=O)N(C)O)sc2cc1OC | –
27 | 21.2 | – | COc1cc2cc(C(=O)CCC(=O)ONC(C)(C)C)sc2cc1OC | fold change (FC) [2]: < 1

Reference: ChEMBL document CHEMBL5108022, “Structure-Activity relationship study of benzothiophene oxobutanoic acid analogues leading to novel stimulator of interferon gene (STING) agonists” (Eur J Med Chem, 2022)
